In brackets after ≈: the same amount, converted by molar mass.
Tests used:
Staphylococcus aureus [1] = experiment: Antibacterial activity against methicillin-resistant Staphylococcus aureus; assay type: functional
[2] = Inhibition of methicillin-resistant Staphylococcus aureus pyruvate kinase
Staphylococcus aureus [3] = experiment: Antibacterial activity against methicillin-resistant Staphylococcus aureus 12 assessed as inhibition of bacterial growth; assay type: functional
Staphylococcus aureus [4] = experiment: Antibacterial activity against methicillin-resistant Staphylococcus aureus 8 assessed as inhibition of bacterial growth; assay type: functional
Staphylococcus aureus [5] = experiment: Antibacterial activity against methicillin-resistant Staphylococcus aureus 3 assessed as inhibition of bacterial growth; assay type: functional
Staphylococcus aureus [6] = experiment: Antibacterial activity against methicillin-resistant Staphylococcus aureus 4 assessed as inhibition of bacterial growth; assay type: functional
Staphylococcus aureus [7] = experiment: Antibacterial activity against methicillin-resistant Staphylococcus aureus 11 assessed as inhibition of bacterial growth; assay type: functional
Staphylococcus aureus [8] = experiment: Antibacterial activity against methicillin-resistant Staphylococcus aureus 9 assessed as inhibition of bacterial growth; assay type: functional
Staphylococcus aureus [9] = experiment: Antibacterial activity against methicillin-resistant Staphylococcus aureus 6 assessed as inhibition of bacterial growth; assay type: functional
Staphylococcus aureus [10] = experiment: Antibacterial activity against methicillin-resistant Staphylococcus aureus 252 assessed as inhibition of bacterial growth; assay type: functional
[11] = Cytotoxicity against human HKC-8 cells assessed as inhibition of cell growth; assay type: toxicity, cell-based
[12] = Cytotoxicity against human MKN-28 cells assessed as inhibition of cell growth; assay type: toxicity, cell-based
[13] = Cytotoxicity against human HepG2 cells assessed as inhibition of cell growth; assay type: toxicity, cell-based
Staphylococcus aureus [14] = experiment: Antibacterial activity against Staphylococcus aureus assessed as inhibition of bacterial growth; assay type: functional
Staphylococcus aureus [15] = experiment: Antibacterial activity against methicillin-resistant Staphylococcus aureus 4N216 infected in mouse assessed as endurance rate at 20 mg/kg, iv relative to control; assay type: functional
Staphylococcus aureus [16] = experiment: Antibacterial activity against Staphylococcus aureus ATCC 25923 assessed as inhibition of bacterial growth by agar well diffusion method; assay type: functional

With `Fc1ccc(Nc2nnc(Cc3c[nH]c4ccccc34)s2)c(F)c1` the MIC (Staphylococcus aureus [1]) was 50 µg/mL (≈ 146 µM).
`O=C(C1=NC(c2c[nH]c3cc(Br)ccc23)CN1)c1c[nH]c2ccccc12` (stereo not drawn) [SPONGOTINE A] gave an IC50 [2] of 0.016 µM.
In the case of `COc1ccc(-c2occ3ccc4c(c(Br)cn4C(C)(C)C)c23)cc1`, the MIC (Staphylococcus aureus [1]) is reported as 1.4 µg/mL (≈ 3.51 µM).
With `Fc1cccc(Nc2nnc(Cc3c[nH]c4ccccc34)s2)c1` the MIC (Staphylococcus aureus [1]) was 25 µg/mL (≈ 77.1 µM).
`Clc1ccc2c(Cl)cc(-c3c[nH]c4ccc(Br)cc34)nc2c1` gave an MIC (Staphylococcus aureus [1]) of less than 1 µg/mL.
Compound `CCCNc1nnc(Cc2c[nH]c3ccccc23)s1` has an MIC (Staphylococcus aureus [1]) of 6.25 µg/mL (≈ 22.9 µM).
Work on `O=C(C1=N[C@H](c2c[nH]c3cc(Br)ccc23)CN1)c1c[nH]c2ccccc12` yielded an IC50 [2] of 0.016 µM.
For `CCn1cc(Br)c2c3c(-c4ccc(Cl)cc4)onc3ccc21`, the MIC (Staphylococcus aureus [1]) was 4.3 µg/mL (≈ 11.4 µM).
`Cc1ccc(C(=O)OC[C@H]2O[C@H](n3c(-c4cc5ccccc5[nH]4)c(CC(=O)N(CC(=O)O)Cc4ccccc4)c4ccccc43)CC2OC(=O)c2ccc(C)cc2)cc1` (stereo partly drawn) gave an MIC (Staphylococcus aureus [3]) of 13 µg/mL (≈ 16.5 µM), an MIC (Staphylococcus aureus [4]) of 13 µg/mL (≈ 16.5 µM) and an MIC (Staphylococcus aureus [5]) of 13 µg/mL (≈ 16.5 µM). For the same compound, the MIC (Staphylococcus aureus [6]) was 13 µg/mL (≈ 16.5 µM), the MIC (Staphylococcus aureus [7]) was 13 µg/mL (≈ 16.5 µM) and the MIC (Staphylococcus aureus [8]) was 13 µg/mL (≈ 16.5 µM). It also gave an MIC (Staphylococcus aureus [9]) of 13 µg/mL (≈ 16.5 µM).
Compound `CC(NC(=O)C(=O)c1c[nH]c2ccc(Br)cc12)c1c[nH]c2ccc(Br)cc12` (stereo not drawn) has an MIC (Staphylococcus aureus [10]) of 2 µg/mL (≈ 4.09 µM).
`Nc1nnc(Cc2c[nH]c3ccccc23)s1` showed an MIC (Staphylococcus aureus [1]) of 3.12 µg/mL (≈ 13.6 µM).
`N=C(N)N/N=C/c1cn(S(=O)(=O)c2ccccc2)c2ccc(-c3ccc(C(F)(F)F)cc3)cc12` showed an MIC (Staphylococcus aureus [1]) of 3.13 µg/mL (≈ 6.45 µM).
With `Clc1ccc(C(c2c[nH]c3ccc(Br)cc23)c2c[nH]c3ccc(Br)cc23)cc1` the MIC (Staphylococcus aureus [1]) was 1 µg/mL (≈ 1.94 µM).
Work on `O=C(NCC(NC(=O)C(=O)c1c[nH]c2ccc(Br)cc12)c1c[nH]c2ccc(Br)cc12)OC(F)(F)F` (stereo not drawn) yielded an MIC (Staphylococcus aureus [10]) of 1 µg/mL (≈ 1.62 µM).
Work on `Clc1ccc2c(c1)[C@H]1OCO[C@H]1C(c1c[nH]c3ccc(Br)cc13)N2` (stereo partly drawn) yielded an MIC (Staphylococcus aureus [1]) of 0.31 µg/mL (≈ 0.764 µM).
With `S=C=NCCn1ccc2ccccc21` the IC50 [11] was 2 µg/mL (≈ 9.89 µM), the IC50 [12] was 2 µg/mL (≈ 9.89 µM) and the IC50 [13] was 2 µg/mL (≈ 9.89 µM). For the same compound, the MIC (Staphylococcus aureus [1]) was 8 µg/mL (≈ 39.5 µM).
`COc1ccc2nc3[nH]c4ccccc4c3c(-c3c[nH]c4ccccc34)c2c1` showed an MIC (Staphylococcus aureus [1]) of 4 µg/mL (≈ 11 µM).
In the case of `CC1=C(C(=O)O)N2C(=O)[C@@H](NC(=O)[C@H](N)c3ccccc3)[C@H]2SC1` [CEPHALEXIN ANHYDROUS], the MIC (Staphylococcus aureus [1]) is reported as 72 µg/mL (≈ 207 µM).
Work on `CC[C@H]1OC(=O)[C@H](C)[C@@H](O[C@H]2C[C@@](C)(OC)[C@@H](O)[C@H](C)O2)[C@H](C)[C@@H](O[C@@H]2O[C@H](C)C[C@H](N(C)C)[C@H]2O)[C@](C)(O)C[C@@H](C)C(=O)[C@H](C)[C@@H](O)[C@]1(C)O` [ERYTHROMYCIN] yielded an MIC (Staphylococcus aureus [1]) of 32 µg/mL (≈ 43.6 µM).
Compound `O=C(c1ccc(F)cc1)C1C(c2ccc(Br)cc2)CNC12C(=O)Nc1ccccc12` (stereo not drawn) has an MIC (Staphylococcus aureus [14]) of 40 µg/mL (≈ 86 µM).
`Oc1ccc(C(c2c[nH]c3ccc(Br)cc23)c2c[nH]c3ccc(Br)cc23)cc1` gave an MIC (Staphylococcus aureus [1]) of 1 µg/mL (≈ 2.02 µM).
`Cl.OC(CNCCc1c[nH]c2cc(F)ccc12)Cn1c2ccc(Cl)cc2c2cc(Cl)ccc21` (stereo not drawn) showed an Activity (Staphylococcus aureus [15]) of 75%.
For `COc1ccc(C2C([N+](=O)[O-])C(c3ccccc3)NC23C(=O)Nc2ccccc23)cc1` (stereo not drawn), the MIC (Staphylococcus aureus [16]) was 5 µg/mL (≈ 12 µM).
`CC1(C)S[C@@H]2[C@H](NC(=O)[C@H](N)c3ccccc3)C(=O)N2[C@H]1C(=O)OCOC(=O)[C@@H]1N2C(=O)C[C@H]2S(=O)(=O)C1(C)C` [SULTAMICILLIN] gave an MIC (Staphylococcus aureus [1]) of 25 µg/mL (≈ 42 µM).
Compound `O=C(c1ccc(F)cc1)C1C(c2ccc(Cl)cc2)CNC12C(=O)Nc1ccccc12` (stereo not drawn) has an MIC (Staphylococcus aureus [14]) of 30 µg/mL (≈ 71.3 µM).
Compound `Clc1ccc2nc(-c3c[nH]c4ccc(Br)cc34)ccc2c1` has an MIC (Staphylococcus aureus [1]) of 0.62 µg/mL (≈ 1.73 µM).
For `CCCCn1cc(Br)c2c3c(-c4ccc(OC)cc4)occ3ccc21`, the MIC (Staphylococcus aureus [1]) was 1.4 µg/mL (≈ 3.51 µM).
For `CCn1cc(Br)c2c3c(-c4ccc(OC)cc4)occ3ccc21`, the MIC (Staphylococcus aureus [1]) was 1.4 µg/mL (≈ 3.78 µM).
Work on `N=C(N)N/N=C/c1cn(S(=O)(=O)c2ccccc2)c2ccc(-c3ccc(F)c(Cl)c3)cc12` yielded an MIC (Staphylococcus aureus [1]) of 3.13 µg/mL (≈ 6.66 µM).

— ChEMBL document CHEMBL5230084, “Indole-based derivatives as potential antibacterial activity against methicillin-resistance Staphylococcus aureus (MRSA)” (Eur J Med Chem, 2020)
